# Measurements as given in ChEMBL document CHEMBL5696441 (Nat Chem Biol, 2011).
# pIC50: −log10 of the molar value.
# Key:
# [1] = target: Bone morphogenetic protein receptor type-2 (Homo sapiens) (UniProt Q13873); experiment: Inhibition of BMPR2 (unknown origin) assessed as remaining activity at 1 uM by Kinome scan method relative to control
# [2] = target: Mitogen-activated protein kinase 15 (Homo sapiens) (UniProt Q8TD08); experiment: Inhibition of ERK8 (unknown origin) assessed as remaining activity at 1 uM by Kinome scan method relative to control
# [3] = system: Receptor-type tyrosine-protein kinase FLT3 (Homo sapiens), P36888 [UNDEFINED MUTATION]; experiment: Inhibition of FLT3 ITD mutant (unknown origin) assessed as remaining activity at 1 uM by Kinome scan method relative to control
# [4] = target: Platelet-derived growth factor receptor beta (Homo sapiens) (UniProt P09619); experiment: Inhibition of PDGFRbeta (unknown origin) assessed as remaining activity at 1 uM by Kinome scan method relative to control
# [5] = target: Protein-tyrosine kinase 2-beta (Homo sapiens) (UniProt Q14289); experiment: Inhibition of PYK2 (unknown origin) assessed as remaining activity at 1 uM by Kinome scan method relative to control
# [6] = target: Ribosomal protein S6 kinase alpha-5 (Homo sapiens) (UniProt O75582); experiment: Inhibition of C-terminal kinase domain RPS6KA5 (unknown origin) assessed as remaining activity at 1 uM by Kinome scan method relative to control
# [7] = target: Serine/threonine-protein kinase SBK1 (Homo sapiens) (UniProt Q52WX2); experiment: Inhibition of SBK1 (unknown origin) assessed as remaining activity at 1 uM by Kinome scan method relative to control
# [8] = target: Mitogen-activated protein kinase kinase kinase 5 (Homo sapiens) (UniProt Q99683); experiment: Inhibition of human ASK1 assessed as residual activity at 1 uM using RBER-GSK3(14-27) as substrate in presence of 33P-ATP by ProQinase assay relative to control
# [9] = target: Eukaryotic elongation factor 2 kinase (Homo sapiens) (UniProt O00418); experiment: Inhibition of human EEF2K assessed as residual activity at 1 uM using RBER-GSK3 as substrate in presence of 33P-ATP by ProQinase assay relative to control
# [10] = target: Fibroblast growth factor receptor 4 (Homo sapiens) (UniProt P22455); experiment: Inhibition of human FGFR4 assessed as residual activity at 1 uM using polyEy as substrate in presence of 33P-ATP by ProQinase assay relative to control
# [11] = target: Inhibitor of nuclear factor kappa-B kinase subunit beta (Homo sapiens) (UniProt O14920); experiment: Inhibition of human IKKbeta assessed as residual activity at 1 uM using RBER-CHKtide as substrate in presence of 33P-ATP by ProQinase assay relative to control
# [12] = target: Tyrosine-protein kinase JAK1 (Homo sapiens) (UniProt P23458); experiment: Inhibition of human JAK1 assessed as residual activity at 1 uM using RBER-IRStide as substrate in presence of 33P-ATP by ProQinase assay relative to control
# [13] = target: Tyrosine-protein kinase Lyn (Homo sapiens) (UniProt P07948); experiment: Inhibition of human LYN assessed as residual activity at 1 uM using polyEY as substrate in presence of 33P-ATP by ProQinase assay relative to control
# [14] = target: T1, MAP/microtubule affinity-regulating kinase 4 (Homo sapiens) (UniProt Q96L34); experiment: Inhibition of human MARK4 assessed as residual activity at 1 uM using RBER-CHKtide as substrate in presence of 33P-ATP by ProQinase assay relative to control
# T1 sequence (whole entry): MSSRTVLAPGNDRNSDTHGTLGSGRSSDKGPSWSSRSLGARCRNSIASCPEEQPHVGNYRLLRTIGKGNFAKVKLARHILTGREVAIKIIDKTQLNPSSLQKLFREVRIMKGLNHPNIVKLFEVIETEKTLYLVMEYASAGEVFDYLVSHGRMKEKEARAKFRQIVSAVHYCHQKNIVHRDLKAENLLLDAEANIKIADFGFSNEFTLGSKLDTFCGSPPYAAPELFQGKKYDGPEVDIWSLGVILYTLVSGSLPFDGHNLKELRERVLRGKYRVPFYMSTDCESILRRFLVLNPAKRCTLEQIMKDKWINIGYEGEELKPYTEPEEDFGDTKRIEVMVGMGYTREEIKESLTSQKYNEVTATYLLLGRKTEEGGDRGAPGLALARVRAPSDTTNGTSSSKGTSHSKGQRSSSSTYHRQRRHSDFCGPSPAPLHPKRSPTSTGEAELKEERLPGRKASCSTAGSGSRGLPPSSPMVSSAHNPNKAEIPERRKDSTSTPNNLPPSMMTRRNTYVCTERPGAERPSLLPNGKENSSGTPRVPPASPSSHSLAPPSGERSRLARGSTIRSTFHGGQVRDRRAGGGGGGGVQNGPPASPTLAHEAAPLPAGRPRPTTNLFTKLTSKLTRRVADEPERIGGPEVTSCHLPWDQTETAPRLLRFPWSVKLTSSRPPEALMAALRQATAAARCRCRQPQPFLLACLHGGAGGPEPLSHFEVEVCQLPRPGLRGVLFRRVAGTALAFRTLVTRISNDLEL
# [15] = system: Platelet-derived growth factor receptor alpha (Homo sapiens), P16234 [D842V]; experiment: Inhibition of human PDGFRalpha D842V mutant assessed as residual activity at 1 uM using Poly(Ala,Glu,Lys,Tyr)6:2:5:1 as substrate in presence of 33P-ATP by ProQinase assay relative to control
# [16] = species: Homo sapiens; experiment: Inhibition of human PKA assessed as residual activity at 1 uM using bio-4xCHKT as substrate in presence of 33P-ATP by ProQinase assay relative to control
# [17] = target: Protein kinase C epsilon type (Homo sapiens) (UniProt Q02156); experiment: Inhibition of human PKCepsilon assessed as residual activity at 1 uM using 3xChocktide-PKC(19-31) as substrate in presence of 33P-ATP by ProQinase assay relative to control
# [18] = target: Dual serine/threonine and tyrosine protein kinase (Homo sapiens) (UniProt Q6XUX3); experiment: Inhibition of human RIPK5 assessed as residual activity at 1 uM using RBER-CHKtide as substrate in presence of 33P-ATP by ProQinase assay relative to control
# [19] = Anti-inflammatory activity against human derived high respond PBMC cells assessed as inhibition in stimulated IL-13 cytokine release incubated for 2 hrs in the presence of LPS/SEB/aCD28 by Luminex based sandwich immunoassay; assay type: functional, cell-based
# [20] = Anti-inflammatory activity against human derived high respond PBMC cells assessed as inhibition in stimulated IL-5 cytokine release at 10 uM incubated for 2 hrs in the presence of LPS/SEB/aCD28 by Luminex based sandwich immunoassay relative to control; assay type: functional
# Platelet-derived growth factor receptor alpha (Homo sapiens), P16234 [D842V], sequence (P16234 whole entry D842V): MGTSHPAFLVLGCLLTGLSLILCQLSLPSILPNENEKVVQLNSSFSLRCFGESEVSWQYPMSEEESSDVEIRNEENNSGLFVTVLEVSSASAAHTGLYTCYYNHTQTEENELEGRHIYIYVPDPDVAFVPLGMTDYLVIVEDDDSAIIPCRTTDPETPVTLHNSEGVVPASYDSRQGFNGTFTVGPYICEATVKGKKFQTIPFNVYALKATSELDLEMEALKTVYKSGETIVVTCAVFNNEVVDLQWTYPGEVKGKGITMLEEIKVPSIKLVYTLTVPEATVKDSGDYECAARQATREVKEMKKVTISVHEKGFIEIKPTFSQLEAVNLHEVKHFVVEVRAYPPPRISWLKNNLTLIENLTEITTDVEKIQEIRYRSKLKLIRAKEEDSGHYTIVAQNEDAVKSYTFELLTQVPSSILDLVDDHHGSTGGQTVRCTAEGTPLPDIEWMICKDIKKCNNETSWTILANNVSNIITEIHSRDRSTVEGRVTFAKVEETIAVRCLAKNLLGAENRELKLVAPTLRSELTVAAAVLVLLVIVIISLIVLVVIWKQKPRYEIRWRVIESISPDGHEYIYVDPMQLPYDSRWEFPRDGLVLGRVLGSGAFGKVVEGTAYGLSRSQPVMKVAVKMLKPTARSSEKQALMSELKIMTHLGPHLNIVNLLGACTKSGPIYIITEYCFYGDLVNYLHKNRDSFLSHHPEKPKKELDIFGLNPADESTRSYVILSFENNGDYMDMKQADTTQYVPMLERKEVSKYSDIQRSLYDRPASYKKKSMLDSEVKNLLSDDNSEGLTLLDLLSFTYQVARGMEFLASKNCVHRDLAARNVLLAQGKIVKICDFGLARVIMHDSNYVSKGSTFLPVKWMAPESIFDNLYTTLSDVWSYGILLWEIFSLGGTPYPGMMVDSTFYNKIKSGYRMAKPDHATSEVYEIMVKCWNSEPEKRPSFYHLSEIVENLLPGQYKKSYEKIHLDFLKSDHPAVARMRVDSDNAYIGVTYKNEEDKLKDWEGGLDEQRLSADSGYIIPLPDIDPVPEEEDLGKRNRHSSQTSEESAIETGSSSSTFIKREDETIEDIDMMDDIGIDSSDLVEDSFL
# Dual serine/threonine and tyrosine protein kinase (Homo sapiens), sequence (Q6XUX3 whole entry): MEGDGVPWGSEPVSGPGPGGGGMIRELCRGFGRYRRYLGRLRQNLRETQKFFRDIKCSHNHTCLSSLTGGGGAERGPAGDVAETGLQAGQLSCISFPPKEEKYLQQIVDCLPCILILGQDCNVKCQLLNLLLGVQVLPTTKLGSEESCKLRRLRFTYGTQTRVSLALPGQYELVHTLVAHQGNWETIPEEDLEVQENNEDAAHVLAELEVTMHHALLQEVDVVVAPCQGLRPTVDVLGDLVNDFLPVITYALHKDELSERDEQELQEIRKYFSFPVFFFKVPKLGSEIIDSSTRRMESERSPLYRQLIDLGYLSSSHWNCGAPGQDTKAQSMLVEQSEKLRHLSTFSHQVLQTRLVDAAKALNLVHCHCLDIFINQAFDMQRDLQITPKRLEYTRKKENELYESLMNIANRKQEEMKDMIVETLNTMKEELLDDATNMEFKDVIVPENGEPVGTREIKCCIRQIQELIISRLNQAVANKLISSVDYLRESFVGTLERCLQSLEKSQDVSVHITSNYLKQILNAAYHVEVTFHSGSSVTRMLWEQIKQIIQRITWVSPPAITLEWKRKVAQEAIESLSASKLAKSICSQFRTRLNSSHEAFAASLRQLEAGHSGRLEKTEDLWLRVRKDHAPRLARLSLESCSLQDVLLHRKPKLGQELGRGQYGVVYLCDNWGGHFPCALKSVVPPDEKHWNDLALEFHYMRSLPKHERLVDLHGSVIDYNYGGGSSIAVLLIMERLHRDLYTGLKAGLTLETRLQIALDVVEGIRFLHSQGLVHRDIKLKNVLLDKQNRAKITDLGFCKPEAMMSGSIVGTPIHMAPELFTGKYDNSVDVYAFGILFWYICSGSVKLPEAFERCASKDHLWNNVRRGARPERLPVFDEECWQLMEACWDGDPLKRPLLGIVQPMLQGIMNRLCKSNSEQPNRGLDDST
# Mitogen-activated protein kinase kinase kinase 5 (Homo sapiens), sequence (Q99683 whole entry): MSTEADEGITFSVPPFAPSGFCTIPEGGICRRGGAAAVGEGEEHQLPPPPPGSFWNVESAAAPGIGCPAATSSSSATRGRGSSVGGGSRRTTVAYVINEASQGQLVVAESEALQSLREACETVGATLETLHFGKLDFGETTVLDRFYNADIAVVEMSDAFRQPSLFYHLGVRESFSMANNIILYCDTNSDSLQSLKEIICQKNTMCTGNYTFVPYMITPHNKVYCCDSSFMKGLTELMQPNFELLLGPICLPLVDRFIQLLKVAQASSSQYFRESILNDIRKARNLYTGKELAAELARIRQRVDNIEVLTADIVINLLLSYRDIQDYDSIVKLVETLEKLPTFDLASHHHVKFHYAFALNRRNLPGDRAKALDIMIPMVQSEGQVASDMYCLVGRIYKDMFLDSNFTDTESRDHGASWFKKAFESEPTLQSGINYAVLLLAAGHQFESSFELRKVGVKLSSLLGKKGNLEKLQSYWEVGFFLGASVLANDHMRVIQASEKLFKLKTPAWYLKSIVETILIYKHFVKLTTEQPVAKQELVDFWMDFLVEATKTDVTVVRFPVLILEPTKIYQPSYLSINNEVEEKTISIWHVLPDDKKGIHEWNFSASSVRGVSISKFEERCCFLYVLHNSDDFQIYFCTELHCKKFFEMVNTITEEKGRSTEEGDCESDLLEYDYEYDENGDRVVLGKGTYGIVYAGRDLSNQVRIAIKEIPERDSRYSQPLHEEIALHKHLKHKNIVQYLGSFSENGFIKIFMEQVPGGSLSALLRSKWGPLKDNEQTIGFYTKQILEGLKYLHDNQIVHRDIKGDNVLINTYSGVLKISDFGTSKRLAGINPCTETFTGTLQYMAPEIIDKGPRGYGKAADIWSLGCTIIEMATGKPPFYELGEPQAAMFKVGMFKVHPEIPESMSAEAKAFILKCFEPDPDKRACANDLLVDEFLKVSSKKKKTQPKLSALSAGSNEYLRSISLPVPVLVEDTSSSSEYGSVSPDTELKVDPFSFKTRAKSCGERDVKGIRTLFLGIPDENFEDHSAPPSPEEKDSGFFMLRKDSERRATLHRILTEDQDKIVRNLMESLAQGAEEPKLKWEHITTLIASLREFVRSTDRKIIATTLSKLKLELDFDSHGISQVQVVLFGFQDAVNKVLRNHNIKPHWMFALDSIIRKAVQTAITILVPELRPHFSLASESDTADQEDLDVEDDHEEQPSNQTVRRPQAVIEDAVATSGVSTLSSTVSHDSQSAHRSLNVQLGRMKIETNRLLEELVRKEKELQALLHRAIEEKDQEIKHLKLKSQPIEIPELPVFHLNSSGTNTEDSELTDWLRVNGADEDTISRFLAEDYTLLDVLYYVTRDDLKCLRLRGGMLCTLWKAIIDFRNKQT
# Bone morphogenetic protein receptor type-2 (Homo sapiens), sequence (Q13873 whole entry): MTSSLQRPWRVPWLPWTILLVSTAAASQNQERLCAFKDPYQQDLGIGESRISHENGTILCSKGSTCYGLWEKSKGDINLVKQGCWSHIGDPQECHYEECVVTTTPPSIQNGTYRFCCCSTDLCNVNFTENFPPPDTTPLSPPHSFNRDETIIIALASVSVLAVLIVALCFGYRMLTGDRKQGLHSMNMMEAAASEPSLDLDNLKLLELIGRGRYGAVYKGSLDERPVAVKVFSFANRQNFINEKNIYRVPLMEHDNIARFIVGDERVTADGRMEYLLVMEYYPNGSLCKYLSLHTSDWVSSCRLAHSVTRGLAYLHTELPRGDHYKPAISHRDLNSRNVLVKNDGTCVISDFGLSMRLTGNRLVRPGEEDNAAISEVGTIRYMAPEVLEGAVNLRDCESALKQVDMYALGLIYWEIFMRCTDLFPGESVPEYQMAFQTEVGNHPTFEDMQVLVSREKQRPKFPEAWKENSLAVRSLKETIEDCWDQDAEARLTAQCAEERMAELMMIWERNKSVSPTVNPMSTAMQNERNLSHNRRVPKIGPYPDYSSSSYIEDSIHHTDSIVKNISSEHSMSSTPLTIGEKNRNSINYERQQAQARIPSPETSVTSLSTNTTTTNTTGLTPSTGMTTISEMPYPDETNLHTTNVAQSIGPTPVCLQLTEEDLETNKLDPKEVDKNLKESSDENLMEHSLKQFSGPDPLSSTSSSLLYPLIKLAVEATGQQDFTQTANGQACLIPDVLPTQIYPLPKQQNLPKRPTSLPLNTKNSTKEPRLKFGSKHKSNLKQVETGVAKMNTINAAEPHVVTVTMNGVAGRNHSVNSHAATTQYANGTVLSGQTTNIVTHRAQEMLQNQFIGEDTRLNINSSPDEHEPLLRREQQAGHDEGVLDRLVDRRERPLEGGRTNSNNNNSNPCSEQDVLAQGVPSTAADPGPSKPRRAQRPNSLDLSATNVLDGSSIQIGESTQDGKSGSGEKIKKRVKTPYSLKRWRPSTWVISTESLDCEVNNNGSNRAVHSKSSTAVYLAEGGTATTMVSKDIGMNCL
# Mitogen-activated protein kinase 15 (Homo sapiens), sequence (Q8TD08 whole entry): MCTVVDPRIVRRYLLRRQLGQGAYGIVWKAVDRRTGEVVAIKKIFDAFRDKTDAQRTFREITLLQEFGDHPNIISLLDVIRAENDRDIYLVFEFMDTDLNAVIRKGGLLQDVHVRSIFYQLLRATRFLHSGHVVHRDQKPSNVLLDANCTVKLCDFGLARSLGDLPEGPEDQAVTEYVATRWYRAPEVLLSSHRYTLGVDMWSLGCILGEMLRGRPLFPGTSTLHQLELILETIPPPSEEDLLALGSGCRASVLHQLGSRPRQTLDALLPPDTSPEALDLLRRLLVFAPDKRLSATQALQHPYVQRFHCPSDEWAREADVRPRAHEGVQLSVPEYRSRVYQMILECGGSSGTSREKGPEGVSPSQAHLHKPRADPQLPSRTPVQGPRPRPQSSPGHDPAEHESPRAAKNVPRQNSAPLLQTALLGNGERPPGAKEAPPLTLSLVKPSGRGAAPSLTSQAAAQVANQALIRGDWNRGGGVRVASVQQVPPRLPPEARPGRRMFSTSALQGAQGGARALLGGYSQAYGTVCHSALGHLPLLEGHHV
structure (smiles),measurement,setting,value
O=C1c2ccc(Nc3ccc(F)cc3F)cc2CCc2ccc(OC[C@H](O)CO)cc21 [Skepinone-L],Activity,[1],100%
same,Activity,[2],99%
same,Activity,[3],96%
same,Activity,[4],87%
same,Activity,[5],100%
same,Activity,[6],92%
same,Activity,[7],100%
same,Activity,[8],103%
same,Activity,[9],88%
same,Activity,[10],103%
same,Activity,[11],81%
same,Activity,[12],93%
same,Activity,[13],98%
same,Activity,[14],96%
same,Activity,[15],97%
same,Activity,[16],94%
same,Activity,[17],99%
same,Activity,[18],95%
same,pIC50,[19],5.71
same,inhibition at 10 µM,[20],50%
